The text below walks through data of patent publication US20060263305A1, “Biofilm removing agent for removing a biofilm” (priority 2003, published 2006).

For data set [1], the system named is biofilm formed by periodontal pathogens. The data set can be described thus: biofilm destruction ratio on a preformed biofilm in a glass vessel. Format: cell-based, periodontal pathogens (gram-negative bacteria). To be noted: 1 mg in 100 ml distilled water; biofilm formed for 24 hours; read after 24 hours; relative to distilled water alone; FIG. 1. The method, then: Periodontal pathogens were put in a glass vessel and left for 24 hours to form a biofilm. Then, a solution of a biofilm removing agent containing 1 mg of azithromycin as a medical agent dissolved in 100 ml of distilled water was supplied into the glass vessel. After lapse of 24 hours, a destruction ratio of the biofilm formed by the periodontal pathogens was examined. Further, the biofilm destruction ratio of the biofilm removing agent containing azithromycin according to this invention was evaluated in comparison with the biofilm destruction ratio of each of minocycline, erythromycin, and josamycin. Specifically, each of minocycline, erythromycin, and josamycin was supplied together with distilled water into a glass vessel in which the biofilm was formed. After lapse of 24 hours, the destruction ratio of the biofilm formed by the periodontal pathogens was examined. The content of each of minocycline, erythromycin, and josamycin in the distilled water was equal to that of the biofilm removing agent containing azithromycin. […] In FIG. 1, the biofilm destruction ratio by each of azithromycin, minocycline, erythromycin, and josamycin is a ratio of a destroyed or lost part of the biofilm with respect to a biofilm formed by the periodontal pathogens and supplied with distilled water alone without any antibiotic.

Data set [2] shares this test system. The experiment in a line: biofilm inhibition ratio (inhibiting formation of the biofilm) in a glass vessel. Format: cell-based, periodontal pathogens (gram-negative bacteria). To be noted: 1 mg in 100 ml distilled water, added together with the pathogens; read after 24 hours; relative to distilled water alone; FIG. 2. The procedure:
Periodontal pathogens were put in a glass vessel together with a biofilm removing agent containing 1 mg of azithromycin as a medical agent dissolved in 100 ml of distilled water. After lapse of 24 hours, an inhibition ratio of the biofilm to be formed by the periodontal pathogens was examined.
Further, the biofilm inhibition ratio of the biofilm removing agent containing azithromycin according to this invention was evaluated in comparison with the biofilm inhibition ration of each of minocycline, erythromycin, and josamycin. Specifically, each of minocycline, erythromycin, and josamycin was put into a glass vessel together with periodontal pathogens and distilled water. After lapse of 24 hours, the biofilm inhibition ratio of the biofilm formed by the periodontal pathogens was examined.
The content of each of minocycline, erythromycin, and josamycin in the distilled water was equal to that of the biofilm removing agent containing azithromycin.
In FIG. 2, the biofilm inhibition ratio of each of azithromycin, minocycline, erythromycin, and josamycin is a ratio of a part without the biofilm with respect to an entire biofilm formed by the periodontal pathogens in presence of distilled water alone without any antibiotic.

The conditions of data set [3]: compared with 14-membered ring macrolide antibiotics; stated without a test; cited from earlier work.
The subject of data set [4] is hepatic metabolic enzymes. Particulars: compared with 14-membered ring macrolide antibiotics; stated without a test; cited from earlier work.
The conditions of data set [5]: compared with 14-membered ring macrolide antibiotics; stated without a test; cited from earlier work. This is another data set of the same source.

Turning to `CO[C@@H]1[C@@H](O[C@@H]2O[C@H](C)[C@@H](O[C@H]3C[C@@](C)(O)[C@@H](OC(=O)CC(C)C)[C@H](C)O3)[C@H](N(C)C)[C@H]2O)[C@@H](CC=O)C[C@@H](C)[C@@H](O)/C=C/C=C/C[C@@H](C)OC(=O)C[C@H]1OC(C)=O` [josamycin], the “biofilm destruction ratio (destruction ratio of gram-negative bacteria)” value (shortened to “biofilm destruction ratio”) in data set [1] was “about 25%”. In addition, the “biofilm inhibition ratio (adhesion prevention ratio of gram-negative bacteria)” value (“biofilm inhibition ratio” below) in data set [2] was “about 35%”.

Take `CC[C@H]1OC(=O)[C@H](C)[C@@H](O[C@H]2C[C@@](C)(OC)[C@@H](O)[C@H](C)O2)[C@H](C)[C@@H](O[C@@H]2O[C@H](C)C[C@H](N(C)C)[C@H]2O)[C@](C)(O)C[C@@H](C)CN(C)[C@H](C)[C@@H](O)[C@]1(C)O` [azithromycin]: the “biofilm destruction ratio” value in data set [1] is listed as “about 60%”. The “biofilm inhibition ratio” value in data set [2] is reported as “about 45%”. The “stability against gastric acid” value in data set [3] is recorded as “considerably stable”. For the same molecule, the “activation of hepatic metabolic enzymes” value in data set [4] was “extremely small level”. In addition, in data set [5], the digestive side effect entry was “equivalent”.

With `CC[C@H]1OC(=O)[C@H](C)[C@@H](O[C@H]2C[C@@](C)(OC)[C@@H](O)[C@H](C)O2)[C@H](C)[C@@H](O[C@@H]2O[C@H](C)C[C@H](N(C)C)[C@H]2O)[C@](C)(O)C[C@@H](C)C(=O)[C@H](C)[C@@H](O)[C@]1(C)O` [erythromycin], the “biofilm destruction ratio” value in data set [1] is listed as “about 35%”. Further, the “biofilm inhibition ratio” value in data set [2] is reported as “about 40%”.

For `CN(C)c1ccc(O)c2c1C[C@H]1C[C@H]3[C@H](N(C)C)C(O)=C(C(N)=O)C(=O)[C@@]3(O)C(O)=C1C2=O` [minocycline], the “biofilm destruction ratio” value in data set [1] is “about 10%”. For the same molecule, in data set [2], the “biofilm inhibition ratio” value is on record as “about 23%”.
